According to patent US3937818A, “Benzylamine narcotic antagonists” (American Home Products Corporation, priority 1974, dated 1976):

system: Morphine Induced Loss of Righting Reflex; experiment: Antagonism of Morphine Induced Loss of Righting Reflex; type: in vivo, male Charles River rats; details: Rattus norvegicus, im; rats; morphine base 75 mg/kg subcutaneously; antagonist intramuscularly 40 minutes after the morphine; measured at 20 minute intervals for 2 hours; read-out: ED50 (dose for 50 percent reversal of the loss of righting reflex)
Method: Groups of three male Charles River rats (160 to 200 g.) were dosed subcutaneously with morphine base at 75 mg/kg. The degree of narcosis was measured at 15 and 30 minutes after injection. Criterion was loss of righting reflex. Antagonists were administered 40 minutes after the morphine. The degree of antagonism was measured at 20 minute intervals for 2 hours. Nalorphine at 2 mg/kg. served as a positive control while one group of morphinized rats in each determination received no antagonist and served as negative controls. Compounds were dissolved in water or suspended in Tween-80 and water and were administered intramuscularly. Each dose of the antagonist was tested in a minimum of three experiments. At least three doses of each antagonist was used to determine the ED50. For each experiment the degree of reversal, by the antagonist, of the loss of righting reflex induced by morphine was calculated in the following manner. The total number of periods of loss of righting reflex in the experimental group was divided by the total number of periods of loss of righting reflex in the control group. This number was converted to percent and subtracted from 100 to give percent reversal of loss of righting reflex. The dose for which a 50 percent reversal of the loss of righting reflex was observed is the ED50.

Structure (SMILES) | ED50 [mg/kg]
CN(C)C(c1cccc(O)c1)[C@@H]1CCCC[C@@H]1OCc1ccccc1 (single isomer, unassigned) [(l)-α-dimethylamino-α-(cis-2-benzyloxycyclohexyl)-m-cresol] | 0.35
CN(C)C(c1cccc(O)c1)[C@@H]1CCCC[C@@H]1OCc1ccccc1 (stereo partly drawn) [(dl)-α-dimethylamino-α-(cis-2-benzyloxycyclohexyl)-m-cresol] | 0.95
CCO[C@@H]1CCCC[C@@H]1C(c1cccc(O)c1)N(C)C (stereo partly drawn) [(dl)-α-dimethylamino-α-(cis-2-ethoxycyclohexyl)-m-cresol] | 2
C=CCN1CC[C@]23c4c5ccc(O)c4O[C@H]2[C@@H](O)C=C[C@H]3[C@H]1C5 [Nalorphine, reference compound] | 1
